Laboratory results: publication PMC8128204, “Development of 3-methyl/3-(morpholinomethyl)benzofuran derivatives as novel antitumor agents towards non-small cell lung cancer cells” (Journal of Enzyme Inhibition and Medicinal Chemistry, 2021)
Values after ≈ are worked out from the molar mass of the structure shown.

How the values were obtained:
NCI-H23 cells [1] = assay: MTT anti-proliferative assay, NCI-H23; type: cell-based, human; details: mean ± SD of three experiments
Experimental: (§1) The antiproliferative activity of the synthesised derivatives of the 3-methylbenzofuran series (4a–d, 6a–c, 8a–c and 11) and the 3-(morpholinomethyl)benzofuran series (15a–c, 16a–b, 17a–b and 18) was evaluated against non-small cell lung carcinoma (NSCLC) A549 and NCI-H23 cell lines, following the procedures of the MTT assay. […] 1. Anti-proliferative action toward human […] cell lines […]
(§2) The two examined human non-small cell lung carcinoma cell lines (A549 and NCI-H23) have been obtained from American Type Culture Collection (ATCC). The cells were maintained in Dulbecco's modified Eagle's medium (DMEM) supplemented with 10% heat inactivated fetal calf serum (GIBCO), penicillin (100 U/ml) and streptomycin (100 µg/ml) at 37 °C in humidified atmosphere containing 5% CO2. […]
(§3) flask in 5 ml of culture medium. The anti-proliferative activity of the tested 3-methylbenzofurans (4a-d, 6a-c, 8a-c and 11) and 3-(morpholinomethyl)benzofurans (15a-c, 16a-b, 17a-b and 18) measured in vitro using the MTT assay. Briefly, cells were plated out in 96-well microtiter plate (0.5X10^4 cells/well) and incubated for 24 h before treatment with the tested benzofurans to allow cells to attach to the bottom of the well of the plate. Tested benzofuranswere were dissolved in DMSO at 1 mg/ml immediately before use and diluted to the appropriate volume just before addition to the cell culture. […]
(§4) added to the cells (three wells were prepared for each individual dose). Cells were incubated with […]
(§5) At the end of exposure, MTT […]
(§6) solution in PBS (5 mg/ml) was then added to all well including no cell blank and left to incubate for 90 min. The formation of formazan crystals were visually confirmed using phase contract microscopy. DMSO (100 µl/well) was added to dissolve the formazan crystals with shaking for 10 min after which the absorbance was read at 590 nm against no cell blanks on a microplate reader.
(§7) The relation between percent of surviving fraction and log drug concentration is plotted to get the survival curve for each cell line.

A549 cells = assay: MTT anti-proliferative assay, A549; type: cell-based, human; details: mean ± SD of three experiments
Experimental: as §1, §2, §3, §4, §5, §6, §7

VEGFR-2 = VEGFR-2 (Homo sapiens, UniProt P35968); assay: VEGFR-2 kinase inhibitory assay (VEGFR2(KDR) Kinase Assay Kit)
Chain of VEGFR-2 (P35968 20-1356): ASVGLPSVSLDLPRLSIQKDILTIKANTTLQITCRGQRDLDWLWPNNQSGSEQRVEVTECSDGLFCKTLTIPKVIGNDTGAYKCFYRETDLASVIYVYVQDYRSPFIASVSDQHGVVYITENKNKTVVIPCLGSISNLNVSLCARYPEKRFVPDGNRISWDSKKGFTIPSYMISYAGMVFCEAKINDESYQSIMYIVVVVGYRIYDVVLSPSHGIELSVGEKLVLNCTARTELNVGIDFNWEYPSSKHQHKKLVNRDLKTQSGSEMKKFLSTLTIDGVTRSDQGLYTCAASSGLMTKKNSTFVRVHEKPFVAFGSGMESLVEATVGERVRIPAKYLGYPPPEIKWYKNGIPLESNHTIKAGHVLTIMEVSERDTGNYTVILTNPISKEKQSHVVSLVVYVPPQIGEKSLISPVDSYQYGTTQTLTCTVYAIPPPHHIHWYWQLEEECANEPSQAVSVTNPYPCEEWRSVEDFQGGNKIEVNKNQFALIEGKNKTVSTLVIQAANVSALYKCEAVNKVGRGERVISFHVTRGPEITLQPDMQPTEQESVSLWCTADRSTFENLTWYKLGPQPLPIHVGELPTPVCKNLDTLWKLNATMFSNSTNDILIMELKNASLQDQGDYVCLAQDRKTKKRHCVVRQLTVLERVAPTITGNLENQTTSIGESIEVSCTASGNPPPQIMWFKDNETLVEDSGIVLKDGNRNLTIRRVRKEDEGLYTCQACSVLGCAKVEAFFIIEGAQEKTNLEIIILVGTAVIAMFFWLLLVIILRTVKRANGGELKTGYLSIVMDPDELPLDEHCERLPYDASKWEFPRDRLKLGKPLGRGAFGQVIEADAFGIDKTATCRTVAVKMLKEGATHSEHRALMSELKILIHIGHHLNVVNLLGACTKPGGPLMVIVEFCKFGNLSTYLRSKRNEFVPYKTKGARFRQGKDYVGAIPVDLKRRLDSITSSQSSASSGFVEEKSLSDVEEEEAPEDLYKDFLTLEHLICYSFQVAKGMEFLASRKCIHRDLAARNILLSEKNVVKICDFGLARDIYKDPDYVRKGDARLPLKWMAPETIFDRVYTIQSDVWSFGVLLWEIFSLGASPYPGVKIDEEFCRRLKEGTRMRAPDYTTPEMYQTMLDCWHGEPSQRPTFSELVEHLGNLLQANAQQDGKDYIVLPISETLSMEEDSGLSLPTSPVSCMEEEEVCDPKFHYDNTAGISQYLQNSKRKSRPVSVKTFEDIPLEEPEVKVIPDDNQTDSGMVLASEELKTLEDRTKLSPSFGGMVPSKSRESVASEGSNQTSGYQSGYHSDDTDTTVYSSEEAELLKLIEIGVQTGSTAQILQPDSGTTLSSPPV
From the text: CA, USA), according to the manufacturer’s instructions.

NCI-H23 cells [2] = assay: Annexin V-FITC/PI apoptosis assay, NCI-H23; type: cell-based, human; details: NCI-H23, at IC50 concentration; control 2.09%
Experimental: The apoptotic effect of the three benzofurans (4b, 15a and 16a) was evaluated using Annexin VFITC/PI (AV/PI) dual staining assay to validate if their observed cytotoxic effect is due to non-specific necrosis or physiological apoptosis. […] Moreover, the apoptotic effects of 3-(morpholinomethyl)benzofuran derivatives 15a and 16a were evaluated in NCI-H23 cancer cell line.
(§8) Lung cancer A549 cells were treated with benzofuran 4b, whereas NCI-H23 cells were treated […]
(§9) twice with ice-cold phosphate buffered saline (PBS). Subsequently, the treated cells were collected by centrifugation, fixed in ice-cold 70% (v/v) ethanol, washed with PBS, re-suspended with 100 μg/mL RNase, stained with 40 μg/mL PI, and analyzed by flow cytometry using FACS Calibur (Becton Dickinson, BD, Franklin Lakes, NJ, USA). The cell cycle distributions were calculated using CellQuest software 5.1 (Becton Dickinson).
3. Annexin V-FITC Apoptosis Assay […]
Cells were then rinsed in binding buffer and resuspended in 150 μL of binding buffer with the addition of 1 μL of DAPI (1 μg/μL in PBS). Cells were then analyzed using the flow cytometer BD FACS Canto II and the results were interpreted with FlowJo7.6.4 software (Tree Star, Ashland, 4. VEGFR-2 Kinase Inhibitory Activity […]

WI-38 cell line = assay: Cytotoxic activity against non-tumorigenic WI-38 cell line; type: cell-based, human; details: for Mean tumour selectivity: S.I. WI-38/A549 and NCI-H23; for IC50: non-tumorigenic human lung WI-38 cell line
From the text: Antiproliferative agents are designed to inhibit the cellular growth of tumour cells selectively, while sparing the normal cells.

[3] = test system: M. tuberculosis ATCC 27294; assay: Microplate Alamar Blue Assay, anti-tubercular activity; type: cell-based; details: Mycobacterium tuberculosis, ATCC27294, 168 h, MABA, 7 days, read-out: MIC
NCI-H23 cells [4] = assay: Cell cycle analysis (PI flow cytometry), NCI-H23; type: cell-based, human; details: NCI-H23, 24 h at IC50 concentration; for S phase, fold vs control: attenuated; for G2/M phase cell population, fold vs control / sub-G1 phase cell population, fold vs control: augmentation; for G0–G1 phase, fold vs control: reduced
Experimental: as §8
as §9, with “Dickinson). […]” for “Dickinson).”

Structure (SMILES) | melting point | IC50 (NCI-H23 cells [1]; Homo sapiens, NCI-H23, 48 h) | IC50 (A549 cells; Homo sapiens, A549, 48 h) | other results
COc1cccc(NC(=S)NNC(=O)c2oc3ccccc3c2C)c1 [Compound 4a, N-(3-Methoxyphenyl)-2–(3-methylbenzofuran-2-carbonyl)hydrazine-1-carbothioamide] | 172 to 174 °C | 34.2 ± 1.71 µM | 10.1 ± 0.55 µM | –
Cc1c(C(=O)NNC(=S)Nc2cccc(C(F)(F)F)c2)oc2ccccc12 [Compound 4c, 2-(3-Methylbenzofuran-2-carbonyl)-N-(3-(trifluoromethyl)phenyl)hydrazine-1-carbothioamide] | 170 to 172 °C | 24.36 ± 0.12 µM | – | –
Cc1c(C(=O)NNC(=S)Nc2ccc(F)cc2)oc2ccccc12 [Compound 4d, N-(4-Fluorophenyl)-2-(3-methylbenzofuran-2-carbonyl)hydrazine-1-carbothioamide] | 206 to 210 °C | 67.2 ± 3.36 µM | 12.8 ± 0.7 µM | –
COc1cccc(NC(=O)NNC(=O)c2oc3ccccc3c2C)c1 [Compound 6a, N-(3-Methoxyphenyl)-2-(3-methylbenzofuran-2-carbonyl)hydrazine-1-carboxamide] | 162 to 164 °C | 56.7 ± 2.83 µM | 15.1 ± 0.83 µM | –
COc1ccc(NC(=O)NNC(=O)c2oc3ccccc3c2C)cc1 [Compound 6b, N-(4-Methoxyphenyl)-2-(3-methylbenzofuran-2-carbonyl)hydrazine-1-carboxamide] | 236 to 240 °C | 9.24 ± 0.46 µM | 12.5 ± 0.68 µM | –
Cc1c(C(=O)NNC(=O)Nc2ccc(Cl)c(C(F)(F)F)c2)oc2ccccc12 [Compound 6c, N-(4-Chloro-3-(trifluoromethyl)phenyl)-2-(3-methylbenzofuran-2-carbonyl)hydrazine-1-carboxamide] | 240 to 242 °C | 24.5 ± 1.23 µM | 47 ± 2.57 µM | –
COc1cccc(C=NNC(=O)c2oc3ccccc3c2C)c1 [Compound 8a, N'-(3-Methoxybenzylidene)-3-methylbenzofuran-2-carbohydrazide] | 242 to 244 °C | 14.9 ± 0.74 µM | 44.1 ± 2.41 µM | –
COc1ccc(C=NNC(=O)c2oc3ccccc3c2C)cc1 [Compound 8b, N'-(4-Methoxybenzylidene)-3-methylbenzofuran-2-carbohydrazide] | 236 to 240 °C | 6.15 ± 0.31 µM | 9.2 ± 0.5 µM | –
COc1ccc(C(C)=NNC(=O)c2oc3ccccc3c2C)cc1 [Compound 8c, N'-(1-(4-Methoxyphenyl)ethylidene)-3-methylbenzofuran-2-carbohydrazide] | 160 °C | 14 ± 0.7 µM | 16.4 ± 0.89 µM | –
Cc1c(C(=O)NN=C2CCCc3ccccc32)oc2ccccc12 [Compound 11, N'-(3,4-Dihydronaphthalen-1(2H)-ylidene)-3-methylbenzofuran-2-carbohydrazide] | 180 to 182 °C | 12.1 ± 0.6 µM | 30.2 ± 1.65 µM | –
COc1cccc(NC(=S)NNC(=O)c2oc3ccccc3c2CN2CCOCC2)c1 [Compound 15a, N-(3-Methoxyphenyl)-2-(3-(morpholinomethyl)benzofuran-2-carbonyl)hydrazine-1-carbothioamide] | 190 to 192 °C | 2.52 ± 0.13 µM | 5.27 ± 0.29 µM | IC50 (VEGFR-2): 0.133 ± 0.0078 µM; total apoptosis (NCI-H23 cells [2]): 34.59%; Mean tumour selectivity (WI-38 cell line): 8.4; IC50 (WI-38 cell line): 32.8 ± 1.98 µM; IC50 (NCI-H23 cells [1]; 48 h): 2.52 ± 0.13 µM; MIC [3]: 62.5 µg/mL (≈ 142 µM); IC50 (A549 cells; 48 h): 5.27 ± 0.29 µM; S phase, fold vs control (NCI-H23 cells [4]): 0.50 fold; G2/M phase cell population, fold vs control (NCI-H23 cells [4]): 5.33 fold; sub-G1 phase cell population, fold vs control (NCI-H23 cells [4]): 13.13 fold; G0–G1 phase, fold vs control (NCI-H23 cells [4]): 0.56 fold
COc1ccc(NC(=S)NNC(=O)c2oc3ccccc3c2CN2CCOCC2)cc1 [Compound 15b, N-(4-Methoxyphenyl)-2-(3-(morpholinomethyl)benzofuran-2-carbonyl)hydrazine-1-carbothioamide] | 198 to 200 °C | 68.9 ± 3.44 µM | 5.7 ± 0.31 µM | –
O=C(NNC(=S)Nc1cccc(C(F)(F)F)c1)c1oc2ccccc2c1CN1CCOCC1 [Compound 15c, 2-(3-(Morpholinomethyl)benzofuran-2-carbonyl)-N-(3-(trifluoromethyl)phenyl)hydrazine-1-carbothioamide] | 210 to 212 °C | 2.21 µM | 6.3 ± 0.34 µM | IC50 (NCI-H23 cells [1]; 48 h): 2.22 ± 0.11 µM
COc1cccc(NC(=O)NNC(=O)c2oc3ccccc3c2CN2CCOCC2)c1 [Compound 16a, N-(3-Methoxyphenyl)-2-(3-(morpholinomethyl)benzofuran-2-carbonyl)hydrazine-1-carboxamide] | – | 0.49 ± 0.02 µM | 1.52 µM | IC50 (VEGFR-2): 0.0454 ± 0.0027 µM; total apoptosis (NCI-H23 cells [2]): 36.81%; Mean tumour selectivity (WI-38 cell line): 12.9; IC50 (WI-38 cell line): 12.9 ± 0.78 µM; MIC [3]: 125 µg/mL (≈ 294 µM); IC50 (A549 cells; 48 h): 1.5 ± 0.08 µM; S phase, fold vs control (NCI-H23 cells [4]): 0.51 fold; G2/M phase cell population, fold vs control (NCI-H23 cells [4]): 6.90 fold; sub-G1 phase cell population, fold vs control (NCI-H23 cells [4]): 12.54 fold; G0–G1 phase, fold vs control (NCI-H23 cells [4]): 0.47 fold
COc1ccc(NC(=O)NNC(=O)c2oc3ccccc3c2CN2CCOCC2)cc1 [Compound 16b, N-(4-Methoxyphenyl)-2-(3-(morpholinomethyl)benzofuran-2-carbonyl)hydrazine-1-carboxamide] | 242 to 244 °C | 5.09 ± 0.25 µM | 18.9 ± 1.03 µM | –
O=C(NN=Cc1ccccc1)c1oc2ccccc2c1CN1CCOCC1 [Compound 17a, N'-Benzylidene-3-(morpholinomethyl)benzofuran-2-carbohydrazide] | 174 °C | 23 ± 1.15 µM | 6.01 ± 0.03 µM | –
COc1ccc(C=NNC(=O)c2oc3ccccc3c2CN2CCOCC2)cc1 [Compound 17b, N'-(4-Methoxybenzylidene)-3-(morpholinomethyl)benzofuran-2-carbohydrazide] | 200 °C | 3.04 ± 0.15 µM | 10.8 ± 0.59 µM | –
O=C(NN=C1CCCc2ccccc21)c1oc2ccccc2c1CN1CCOCC1 [Compound 18, N'-(3,4-Dihydronaphthalen-1(2H)-ylidene)-3-(morpholinomethyl)benzofuran-2-carbohydrazide] | 200 °C | 29.8 ± 1.49 µM | 3.7 ± 0.2 µM | –
NNC(=O)c1ccncc1 [INH, Isoniazid, reference compound] | – | – | – | MIC [3]: 0.24 µg/mL (≈ 1.75 µM)
